The text below walks through data of PubChem BioAssay AID179 (DTP/NCI, 2004).

By EC50 is commonly meant the concentration at which the effect is half-maximal. As usually defined, the IC50 is the midpoint of a concentration-inhibition curve. A higher IC50 goes with weaker potency in that assay.

Structures are written as SMILES. Calls of active or inactive are those of the source.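 The calls were made as follows: active = compounds giving half or more protection of infected cells from virus-caused growth loss, again on retest; inactive = the rest.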 Where a SMILES comes first, the peptide text is derived from it.

The test system of the assay is CEM cells HIV-1 protection, formazan growth assay. Description: NCI AIDS Antiviral Assay. The following applies: for IC50: measured here: growth of uninfected CEM cells. The protocol: The ability of compounds to protect human CEM cells from HIV-1 infection is measured as a screen for new compounds capable of inhibiting the HIV virus. Five concentrations of drug were tested on uninfected and infected cells and cell growth was measured using a soluble formazan assay. […] Compounds that provided at least 50% protection were retested. Compounds that provided at least 50% protection on retest were listed as moderately active. Compounds that reproducibly provided 100% protection were listed as confirmed active. […] Note that the inability to provide protection could be due to toxicity.

`CC(C)=CCC[C@@H](C)C1=C(Nc2ccccc2)C(O)=C(C)C(=O)C1=O`: the EC50 was above 200 µM and the IC50 amounted to 3.02 µM. The corresponding values for `COC(=O)CC1C=CC(C)(OC)OO1` (stereo unspecified) are above 200 µM and 93.3 µM. For `CCOC(=O)/C(C#N)=C/c1ccccc1Br`, the outcome was inactive.

On to `Cc1cc2c(cc1Cl)SC(NNC(=O)c1ccccc1)=NS2(=O)=O`, for which the EC50 is 123 µM and the IC50 was 132 µM.

Take `CC1=Nc2ccccc2NC(c2ccoc2)C1` (stereo unspecified): the EC50 was above 22.9 µM and the IC50 was above 22.9 µM. Regarding `COC(=O)CCn1cnc2c(SC)ncnc21`, the EC50 is above 200 µM and the IC50 is above 200 µM. With `CCCNC1=C(C(=O)OCC)C(=O)CO1`, the EC50 is above 33.9 µM and the IC50 was above 33.9 µM. Regarding `[O-][n+]1onc2c3nn(-c4ccccc4)nc3ccc21`, the EC50 is above 200 µM and the IC50 was 12 µM. The corresponding values for `CN1C(=O)c2ccccc2C(C(=O)O)C1c1ccc2c(c1)OCO2` (stereo unspecified) are above 151 µM and above 151 µM.

On to `COC1(OC)CCCCC2c3cccc(OC(C)=O)c3C21OC(C)=O` (stereo unspecified), for which the EC50 was 72.4 µM and the IC50 was 214 µM. The matching figures for `N#CC1=C2Sc3ccccc3N2[C@H](c2ccccc2)[C@H]2COC(=O)[C@@H]12`: above 151 µM and 38 µM. `CCOc1ccc(C2(C)OC(=O)C3CCCCC32)c2ccccc12` (stereo unspecified): the outcome was inactive.

Regarding `N#C/C(=C\c1cccc(C#N)c1)C(=O)O`, the EC50 is above 50.1 µM and the IC50 was above 50.1 µM.

`COC(=O)C(Cc1nc2ccccc2[nH]c1=O)C(=O)C(=O)Nc1ccc([N+](=O)[O-])cc1[N+](=O)[O-]` (stereo unspecified): the EC50 was above 55 µM and the IC50 amounted to 25.7 µM. Take `COc1ccc(CC2COC(=O)[C@@H]2Cc2ccc(O)cc2)cc1OC` (stereo partly specified): the EC50 was above 200 µM and the IC50 was determined as 44.7 µM. The matching figures for `COc1cc(-c2ccc(Nc3ccccc3C(=O)O)c(OC)c2)ccc1Nc1ccccc1C(=O)O`: above 200 µM and 0.692 µM. The matching figures for `C=C(Cl)c1c(OC)cccc1OCc1ccccc1`: above 200 µM and 97.7 µM. The matching figures for `Cc1cc(S(=O)(=O)n2ccnc2Oc2ccccc2N)c(SSc2cc(Cl)c(C)cc2S(=O)(=O)n2ccnc2Oc2ccccc2N)cc1Cl`: above 100 µM and 19.5 µM. For `N#CN=C(N)NC#N`, the EC50 is above 1700 µM and the IC50 is above 1700 µM. As to `CC(=O)OC(C)(C)CCC(=O)[C@](C)(O)[C@H]1[C@H](O)C[C@@]2(C)[C@@H]3CCc4c(cc(OC5OC(CO)C(O)C(O)C5O)c(O)c4C)C3(C)C(=O)C[C@]12C` (stereo partly specified), the EC50 is above 200 µM and the IC50 is above 200 µM.

Take `CC1CC(c2ccccc2)Nc2nc3ccccc3n21` (stereo unspecified): the EC50 is above 151 µM and the IC50 is above 151 µM. Take `COc1cc2oc(-c3ccc4c(c3)OCO4)c(OC)c(=O)c2c(O)c1OC`: the EC50 was above 100 µM and the IC50 was above 100 µM. `CC1(C)C[C@H]2[C@H](O)C(CO)=C3C(=O)[C@@H](O)[C@]3(C)[C@H]2C1`: the result was inactive.

Consider `C/C(=N/NC(=S)N(Cc1ccccn1)Cc1ccccn1)c1cnccn1`, for which the EC50 was 0.2 µM and the IC50 turned out to be 0.339 µM. The corresponding values for `CSC(=Nc1cc2ccccc2c2ccccc12)NC#N` are above 34.7 µM and 26.9 µM.

For the molecule `CCSSC1(C)C(=O)N2CCCC2C(=O)N1C` (stereo unspecified), the EC50 was above 200 µM and the IC50 came to 11.5 µM. The matching figures for `Cc1ccc(S(=O)(=O)n2c3c(c4ccccc42)CCN2CCC(Br)C[C@@H]32)cc1` (stereo partly specified): above 200 µM and 20.9 µM.

On to `O=C1c2ccccc2C(=O)N1CCn1nc(-c2ccccc2)cc(-c2ccccc2)c1=O`, for which the EC50 is above 12.3 µM and the IC50 was above 12.3 µM. With `COC(=O)C1=C(O)C(C(=O)OC)C2CC(=O)CC1C2(C)C` (stereo unspecified), the EC50 was above 200 µM and the IC50 was above 200 µM. On to `COC(=O)N/N=C(\Cc1ccccc1)CN(C)C`, for which the EC50 is above 200 µM and the IC50 was above 200 µM. As to `CCCCCCCCCCCCCCCC(=O)NC(Cc1ccc(O)cc1)C(=O)O` (stereo unspecified), the EC50 is above 100 µM and the IC50 turned out to be 50.1 µM. For `CCC1=NC(C(F)(F)F)(C(F)(F)F)N=C(N2CCOCC2)O1`, the EC50 was above 200 µM and the IC50 is above 200 µM. Consider `COc1ccc2c(c1)c1c3c(ccc4ncn2c43)N(CCO)CCN=1`, for which the EC50 is above 100 µM and the IC50 came to 0.178 µM.

With `COC(=O)N1C2C3CC4C2C4C3N1C(=O)OC`, the result was inactive.

Take `c1ccc([S+]([CH2][Hg][CH2][S+](c2ccccc2)c2ccccc2)c2ccccc2)cc1`: the EC50 is above 30.2 µM and the IC50 is 10 µM. The matching figures for `CSc1cc(-c2ccccn2)nc(-c2ccccn2)c1.CSc1cc(-c2ccccn2)nc(-c2ccccn2)c1.[Co+2].[O-][Cl+3]([O-])([O-])[O-]`: above 200 µM and 0.12 µM. Consider `CN(C)CCCNC(=O)c1cc(NC(=O)c2cc(NC(=O)c3cc(NC(=O)c4ccc(C(=O)Nc5cc(C(=O)Nc6cc(C(=O)Nc7cc(C(=O)NCCCN(C)C)n(C)c7)n(C)c6)n(C)c5)cc4)cn3C)cn2C)cn1C`, for which the EC50 is above 100 µM and the IC50 was above 100 µM. Consider `C1CN(SSN2CCOCC2)CCO1`, for which the EC50 is above 200 µM and the IC50 stood at 126 µM. The corresponding values for `c1cncc(CSc2nc3ccccc3nc2-c2cccs2)c1` are above 1.55 µM and above 1.55 µM.

For the molecule `COC(=O)/C(=C/CC(N=C(c1ccccc1)c1ccccc1)C(=O)OC)N=C(c1ccccc1)c1ccccc1` (stereo unspecified), the EC50 is above 9.77 µM and the IC50 is above 9.77 µM. For the molecule `CC(=O)OCC1OC(N2C(C)=C(C(C)=O)C(c3ccco3)C(C#N)=C2S)C(OC(C)=O)C(OC(C)=O)C1OC(C)=O` (stereo unspecified), the EC50 was above 200 µM and the IC50 came out at 110 µM.

As to `COC1/C=C/OC2(C)Oc3c(C)c(O)c4c(O)c(c(C5SCCS5)c(O)c4c3C2=O)NC(=O)/C(C)=C\C=C\C(C)C(O)C(C)C(O)C(C)C(O)C1C` (stereo unspecified), the EC50 was above 200 µM and the IC50 came to 1 µM. Turning to `ClCCCSSCCCCl`, the EC50 was above 200 µM and the IC50 is 31.6 µM.

In the case of `[N-]=[N+]=CC(=O)c1ccccc1C#CCCc1ccccc1`, the EC50 was 46.8 µM and the IC50 came to 67.6 µM. With `C#CCC(O)c1ccccc1C(O)CC#C` (stereo unspecified), the outcome was inactive. For `CN(C)c1nc(N)c(C#N)c(C#N)c1C#N`, the EC50 was above 200 µM and the IC50 came to 8.71 µM. Consider `COC(=O)/C(=N\NC(C)(C)C)C(C(=O)C(=O)Nc1cc(C)ccc1C)c1nc2ccccc2[nH]c1=O` (stereo unspecified), for which the result was inactive. Consider `COC(=O)Cc1cc(OC)c(OC)cc1Br`, for which the EC50 is above 631 µM and the IC50 amounted to 513 µM. The corresponding values for `CN(C)Cc1cc(N=Nc2c(Cl)cccc2Cl)ccc1O` are above 200 µM and 83.2 µM. The matching figures for `CN1CCCC(CNC23CC4CC(CC(C4)C2)C3)C1` (stereo unspecified): above 501 µM and above 501 µM. `CC(C)CC(N)C(=O)NC(Cc1ccc(O)cc1)C(=O)NC(CCC(=O)O)C(=O)N1CCCC1C(=O)NC(CO)C(=O)NC(Cc1ccc(O)cc1)C(=O)NC(C)C(=O)N1CCCC1C(=O)NC(CC(N)=O)C(=O)NC(Cc1cnc[nH]1)C(=O)NC(Cc1ccccc1)C(=O)O` (stereo unspecified) (H-LYEPSYAPNHF-OH; configuration not given here): the outcome was inactive. With `Nc1nc(NCCO)c(N=O)c(=O)[nH]1`, the EC50 was above 182 µM and the IC50 is above 182 µM. For `COc1ccc(NC(=O)CC(=O)N2N=C(N(CCC#N)c3ccc(Cl)cc3)CC2c2ccccc2)cc1` (stereo unspecified), the EC50 was above 36.3 µM and the IC50 is above 36.3 µM. Consider `O=C(N/C(=C\c1cc(Cl)ccc1Cl)c1nc2[nH]c(=S)[nH]c(=O)c2[nH]1)c1ccccc1`, for which the EC50 is above 79.4 µM and the IC50 is 21.9 µM. As to `CCOC(=O)C1=C(C(=O)OCC)C2(c3ccccc3)N(O1)c1ccccc1C2(C)C` (stereo unspecified), the outcome was inactive.

As to `CC(=O)Nc1ccc2c(c1)nc1c3ccccc3ccn21`, the EC50 is above 200 µM and the IC50 amounted to 29.5 µM. As to `CCOC(=O)C1(CO)CSCCSC1`, the EC50 is above 1050 µM and the IC50 was above 1050 µM. As to `COc1ccc(-c2nc3sc(-c4ccc(OC)c(OC)c4)nc3s2)cc1OC`, the EC50 was above 200 µM and the IC50 was above 200 µM. As for `CN(C)c1ccc(/C=C/C(=O)c2ccccc2)cc1Br`, the EC50 is above 15.8 µM and the IC50 was above 15.8 µM. `CS(=O)(=O)Oc1cccc(/C=N/N=C(\N)NO)c1`: the EC50 was above 214 µM and the IC50 was found to be 36.3 µM. On to `CCOC(=O)C1COc2cc(-c3cc(=O)c4ccccc4o3)ccc2O1` (stereo unspecified), for which the outcome was inactive. Consider `CC(=O)Oc1ccc2c(c1)nnn2C(C)=O`, for which the EC50 is above 200 µM and the IC50 is above 200 µM. As to `Cc1ccc(/C=C/c2nnc(N/N=C/c3ccc4c(c3)OCO4)[nH]c2=O)cc1`, the EC50 is above 200 µM and the IC50 was determined as 95.5 µM. As to `CCOC(=O)CCc1c(C)c2c(OC)cc(OC)cc2oc1=O`, the outcome was inactive.

Molecule `CC1(C)OC(CCO)CN1C(=O)OCc1ccccc1` (stereo unspecified) returned an EC50 of 195 µM and a concentration for half-maximal inhibition (IC50) above 200 µM.

Regarding `CCSc1[nH]c(NC(=S)NC(=O)c2ccccc2Cl)c(C(N)=O)c1C(N)=O`, the EC50 is above 200 µM and the IC50 was 110 µM.

As for `CCOc1ccccc1NC(=O)C(=O)Cc1nc2ccccc2s1`, the outcome was inactive.

With `CC(=O)CCCCC(=O)Nc1ccc(CC(NC(=O)OC(C)(C)C)C(=O)NCC(=O)OCc2ccccc2)cc1` (stereo unspecified), the EC50 was above 200 µM and the IC50 was found to be 12.9 µM.

Regarding `COc1ccccc1NC(=O)C1=C(C)NC(C)=C(C(=O)Nc2ccccc2OC)C1c1ccccc1F`, the outcome was inactive.
